# US7282339B2, “Competitive immunoassay” (Invitrogen Corporation, priority 2003, dated 2007)
# Legend:
# [1] = tested on: P-Tyr-100 antiphosphotyrosine monoclonal antibody; test: Ligand analog screening: fluorescence intensity and polarization vs P-Tyr-100 antibody concentration (Examples 22, 24); type: binding, mouse; settings: for Fmax/Fmin: ratio of fluorescence intensity at lowest (Fmax) to highest (Fmin) antibody concentration, 50 nM ligand analog, P-Tyr-100 0.8 to 500 nM, ex/em 480/535 nm
# Procedure: Solutions of test compounds (100 nM) were prepared were prepared in 50 mM Tris-HCl pH 7.5, 10 mM MgCl2, 0.01% Brij-35, 500 μM ATP, 2 mM DTT, 1 mM EGTA. 20 μl aliquots of these solutions were pipetted into the wells of a 384-well microplate. 20 μl aliquots of a serially-diluted […] stock solution of P-Tyr-100 antiphosphotyrosine monoclonal antibody (Cell Signaling Technology, Beverly, Mass.) were added to the wells. The resulting samples contained 50 nM of each ligand analog (Compounds 15, 7, 8, 9, 18 and 19) and antibody concentrations ranging from 0.8 to 500 nM. Fluorescence polarization and intensity of the samples was measured on an EnVision microplate reader (PerkinElmer Life Sciences) using excitation/emission filter settings of 480/535 nm. Increasing fluorescence polarization as a function of antibody concentration (A) provides confirmation of ligand analog binding to the antibody. […] Phosphotyrosine peptide, target ligand, (phospho-pp60 c-src (521-533); TSTEPQY*QPGENL, Bachem California, Inc. Torrance, Calif.) was then added to all samples at a concentration of 10 μM and the fluorescence intensity and polarization measurements were repeated (C, D). […] Displacement of the ligand analogs from antibody is confirmed by depolarization of fluorescence (D compared to A). […] See, FIG. 14.
# Compound 12 and Compound 13 were assessed for efficacy using the methods described in Example 22. […] Samples containing 100 nM of Compound 13 and additional components identified in the figure legend were prepared in 50 mM Tris-HCl pH 7.5, 10 mM MgCl2, 0.01% Brij-35, 100 μM ATP, 2 mM DTT, 1 mM EGTA. 100 μL volumes of these samples were transferred to microcuvettes. The fluorescence emission spectrum was recorded for each sample using a Hitachi F-4500 spectrofluorometer (excitation wavelength=520 nm). See, FIG. 15
# [2] = tested on: Rabbit anti-Akt polyclonal antibody; test: Binding of ethanolamine phosphate ligand analog by anti-Akt antibody (Example 10); settings: 50 nM compound, antibody zero to 250 nM
# Procedure: A 5 mM solution of BODIPY FL ethanolamine phosphate Compound 2 was made in water. A 2.5 mM solution of BODIPY FL ethanolamine (Compound 1) was made in 50% (v/v) DMSO, See Example 1. Rabbit anti-Akt polyclonal antibody (Cell Signaling Technology, catalog # 9611) was serially diluted in 5 μl 50 mM Tris buffer, pH 7.5 in a black, 384-well flat-bottom Packard ProxiPlate preblocked with 0.25% (v/v) Mowiol. After the antibody was serially diluted in the plate, 5 μl of either Compound 2 or Compound 1 was added to the same wells. The final concentration of both compounds in the wells was each 50 nM. The final antibody concentration in the wells was zero to 250 nM. The fluorescence intensity was measured on an EnVision microplate reader (Perkin Elmer), PMT 1 gain 155, PMT 2 gain 191, excitation light 76%, 100 flashes at 9 mM height.
# [3] = tested on: Compound 15+P-Tyr-100 complex; test: Displacement of phosphotyramide ligand analog by phosphotyrosine peptide but not by ATP (Example 17); type: binding, mouse; settings: zero to 1 mM ATP
# Procedure: A 5 mM solution of Compound 15 was prepared in water. Separate reactions of 100 nM Compound 15+/−100 nM P-Tyr-100 (Cell Signaling Technology, catalog # 9411) complexes were made in kinase buffer with various amounts of ATP (50 mM Tris, pH 7.5, 10 mM MgCl2, 1 mM EGTA, 0.01% Brij 35, 2 mM DTT, with zero, 0.1, 0.25, 0.5, or 1 mM ATP). The fluorescence emission of each of the ten solutions was measured using a Hitachi F-4500 spectrofluorometer (Ex 450, Em 510, slit width 5 nm for both wavelengths, PMT gain 700 V). After the initial read, 10 μM phospho-pp60 c-src (10 μM final concentration) peptide (521-533) (TSTEPQY*QPGENL) (Bachem, catalog # H-3258) in kinase buffer was added to the antibody:ligand reactions, and the resulting fluorescence intensity was measured on the same instrument at the same settings.
compound,measurement,setting,value
"O=C(NCCc1ccc(OP(=O)(O)O)cc1)c1ccc(-c2c3ccc(=O)cc-3oc3cc(O)ccc23)c(C(=O)O)c1 [Compound 8, 5-FAM phosphotyramide]","performance in displacement assay, 6-position vs 5-position",[1]; fluorescence intensity readout,superior performance
same,Fmax/Fmin,[1],1.3
BODIPY FL ethanolamine phosphate [Compound 2],quenching of ligand analog when bound by the antibody,[2],slightly quenched
6-FITC phosphotyramide [Compound 19],Fmax/Fmin,[1],1.6
"O=C(CSc1c(F)c(F)c(C(=O)O)c(-c2c3cc(F)c(=O)cc-3oc3cc(O)c(F)cc23)c1F)NCCc1ccc(OP(=O)(O)O)cc1 [Compound 7, Oregon Green 514 phosphotyramide]",Fmax/Fmin,[1],4.0
CN(C)c1ccc2c(-c3cc(C(=O)NCCc4ccc(OP(=O)([O-])O)cc4)ccc3C(=O)O)c3ccc(=[N+](C)C)cc-3oc2c1 [Compound 12],fluorescence intensity change on antibody binding,[1]; methods of Example 22,little or no analytically useful fluorescence intensity change
same,fluorescence polarization change on antibody binding,[1]; methods of Example 22,large fluorescence polarization changes
"O=C(NCCc1ccc(OP(=O)(O)O)cc1)c1ccc(C(=O)O)c(-c2c3ccc(=O)cc-3oc3cc(O)ccc23)c1 [Compound 9, 6-FAM phosphotyramide]","binding affinity for the antibody, 6-isomer compared to 5-isomer",[1]; compared to Compound 8,increased binding affinity
same,"quenching by the antibody, 6-isomer compared to 5-isomer",[1]; compared to Compound 8,increased quenching
same,Fmax/Fmin,[1],3.2
Nc1ncnc2c1ncn2[C@@H]1O[C@H](COP(=O)(O)OP(=O)(O)OP(=O)(O)O)[C@@H](O)[C@H]1O [ATP],displacement of the phosphotyramide ligand analog,[3],does not displace
"O=C(O)c1cc(NC(=S)NCCc2ccc(OP(=O)(O)O)cc2)ccc1-c1c2ccc(=O)cc-2oc2cc(O)ccc12 [Compound 18, 5-FITC phosphotyramide]",Fmax/Fmin,[1],1.7
